Molecules are shown by their SMILES. Calls of active or inactive are those of the source. The rule behind the calls is not given here. Some results are limits rather than exact numbers.

Test [1] concerns SNU-398. Put plainly: Induction of apoptosis in human SNU398 cells measured after 48 hrs by cell and caspase based HTS assay. Particulars: SNU-398, 48 h. The format is functional.
The subject of test [2] is T47D. Put plainly: Cell cycle arrest in human T47D cells by accumulation at G2/M phase after 24 to 48 hrs by flow cytometry. The format is functional, cell-based. (A flow cytometer gives signals particle by particle.)
The nature of test [3]: Inhibition of tubulin polymerization up to 50 uM.
Test [4] deals with T47D. Put plainly: Induction of apoptosis in human T47D cells measured after 48 hrs by cell and caspase based HTS assay. The format is functional.
The subject of test [5] is HCT-116. Put plainly: Induction of apoptosis in human HCT116 cells measured after 48 hrs by cell and caspase based HTS assay. The class given is functional. Particulars: HCT-116, 48 h.
Test [6] deals with T47D. Put plainly: Growth inhibition of human T47D cells after 48 hrs. The class given is functional.
Test [7] deals with SNU-398. Put plainly: Growth inhibition of human SNU398 cells after 48 hrs. The format is functional. The settings on record: SNU-398, 48 h.
For test [8], the system named is HCT-116. Put plainly: Growth inhibition of human HCT116 cells after 48 hrs. Particulars: HCT-116, 48 h. The class given is functional.
Test [9] can be described thus: Inhibition of tubulin polymerization.

As for `N#Cc1cc(C(=O)c2ccccc2)n2c1ccc1c(Cl)cccc12`, the values for the EC50 in the test on SNU-398 [1], with T47D [4] and with HCT-116 [5] were > 10000 nM, 83 nM and 1900 nM, respectively. Besides, the result with T47D [2] was Active. Besides, the outcome in test [3] was inactive.

Take `CC(=O)O[C@H]1C(=O)[C@@]2(C)[C@H]([C@H](OC(=O)c3ccccc3)[C@]3(O)C[C@H](OC(=O)[C@H](O)[C@@H](NC(=O)c4ccccc4)c4ccccc4)C(C)=C1C3(C)C)[C@]1(OC(C)=O)CO[C@@H]1C[C@@H]2O` [PACLITAXEL]: the EC50 (as a rule, the concentration at which the effect is half-maximal) was determined as 9 nM with SNU-398 [1], 37 nM in the test on T47D [4] and 18 nM in the test with HCT-116 [5]. In addition, the GI50 (commonly the concentration that inhibits growth by half) worked out at 26 nM in the test on T47D [6], 61 nM in the test on SNU-398 [7] and 60 nM with HCT-116 [8].

`Cc1cc2c(C#N)cc(C(=O)c3ccccc3)n2c2ccccc12`: the results for the EC50 in the test on SNU-398 [1], in the test on T47D [4] and in the test on HCT-116 [5] were 220 nM, 520 nM and 310 nM, respectively. Besides, the IC50 (commonly the concentration needed to halve the response being measured) in test [9] was < 5000 nM.

As for `N#Cc1cc(C(=O)c2ccc(F)cc2)n2c1ccc1c(Cl)cccc12`, the half-maximal effective concentration (EC50) is > 10000 nM with SNU-398 [1], 53 nM with T47D [4] and > 10000 nM in the test with HCT-116 [5]. In addition, in the test with T47D [2], the result was Active. The outcome in test [3] was inactive.

For the compound `N#Cc1cc(C(=O)c2ccc(N)cc2)n2c1ccc1ccccc12`, the IC50 in [9] was < 5000 nM.

Take `CC[C@]1(O)C[C@@H]2CN(CCc3c([nH]c4ccccc34)[C@@](C(=O)OC)(c3cc4c(cc3OC)N(C)[C@H]3[C@@](O)(C(=O)OC)[C@H](OC(C)=O)[C@]5(CC)C=CCN6CC[C@]43[C@@H]65)C2)C1` [VINBLASTINE]: the EC50 in the test with SNU-398 [1] came to 26 nM; in the test on T47D [4], 32 nM; with HCT-116 [5], 36 nM. Besides, the values for the GI50 in the test on T47D [6], with SNU-398 [7] and in the test on HCT-116 [8] were 7 nM, 5 nM and 10 nM, respectively.

For the compound `N#Cc1cc(C(=O)c2ccc(-n3ccnc3)cc2)n2c1ccc1c(Cl)cccc12`, the EC50 with SNU-398 [1] came out at 1400 nM; in the test on T47D [4] it was 290 nM; in the test on HCT-116 [5], 1900 nM.

Consider `N#Cc1cc(C(=O)c2ccc([N+](=O)[O-])cc2)n2c1ccc1c(Cl)cccc12`, for which the EC50 was > 10000 nM in the test on SNU-398 [1], 62 nM in the test with T47D [4] and > 10000 nM in the test with HCT-116 [5].

Take `Cc1ccc2c(ccc3c(C#N)cc(C(=O)c4ccccc4)n32)c1`: the EC50 in the test with SNU-398 [1], in the test with T47D [4] and with HCT-116 [5] was > 10000 nM in each case.

As to `CN(C)CCOc1cccc2c1ccc1c(C#N)cc(C(=O)c3ccccc3)n12`, the EC50 with SNU-398 [1] came out at 4900 nM; in the test on T47D [4] it was 2800 nM; with HCT-116 [5] it was 6000 nM.

With `Cc1ccc2ccc3c(C#N)cc(C(=O)c4ccccc4)n3c2c1`, the EC50 in the test with SNU-398 [1] is 5000 nM; with T47D [4], 280 nM; in the test on HCT-116 [5], > 10000 nM.

Consider `N#Cc1cc(C(=O)c2cccc(N)c2)n2c1ccc1c(Cl)cccc12`, for which the results for the EC50 with SNU-398 [1], with T47D [4] and in the test with HCT-116 [5] were 5000 nM, 210 nM and 5600 nM, respectively.

Consider `N#Cc1cc(C(=O)c2ccccc2)n2c1ccc1c(OCCN3CCOCC3)cccc12`, for which the EC50 with SNU-398 [1], with T47D [4] and with HCT-116 [5] was > 10000 nM in each case.

In the case of `COc1cccc(C(=O)c2cc(C#N)c3ccc4c(Cl)cccc4n23)c1`, the figures for the EC50 in the test with SNU-398 [1], with T47D [4] and with HCT-116 [5] were 1500 nM, 80 nM and 3700 nM, respectively. The results for the GI50 in the test with T47D [6], in the test with SNU-398 [7] and in the test on HCT-116 [8] were 18 nM, 4800 nM and 8600 nM, respectively.

`N#Cc1cc(C(=O)c2cccc([N+](=O)[O-])c2)n2c1ccc1c(Cl)cccc12`: the EC50 was > 10000 nM in the test on SNU-398 [1], 150 nM in the test with T47D [4] and > 10000 nM in the test with HCT-116 [5].

With `N#Cc1cc(C(=O)c2ccccc2)n2c1ccc1cc(Cl)ccc12`, the EC50 in the test on SNU-398 [1], in the test with T47D [4] and in the test on HCT-116 [5] was > 10000 nM in each case.

Turning to `N#Cc1cc(C(=O)c2cccc(O)c2)n2c1ccc1c(Cl)cccc12`, the EC50 in the test with SNU-398 [1] was determined as 2600 nM; with T47D [4] it was 280 nM; with HCT-116 [5], 2700 nM. In addition, the GI50 with T47D [6] is 160 nM; in the test on SNU-398 [7] it was 2600 nM; with HCT-116 [8] it was 5900 nM. Also, the outcome in the test with T47D [2] was Active. The outcome in [3] was inactive.

Consider `N#Cc1cc(C(=O)c2ccccc2)n2c1ccc1c(O)cccc12`, for which the concentration giving a half-maximal response (EC50) in the test on SNU-398 [1], in the test with T47D [4] and with HCT-116 [5] was > 10000 nM in each case.

`N#Cc1cc(C(=O)c2ccccc2)n2c1ccc1c([N+](=O)[O-])cccc12`: the EC50 in the test with SNU-398 [1], in the test on T47D [4] and in the test with HCT-116 [5] was > 10000 nM each time.

For the compound `N#Cc1cc(C(=O)c2ccc(-n3ccnc3)cc2)n2c1ccc1ccccc12`, the IC50 in test [9] is < 5000 nM.

On to `N#Cc1cc(C(=O)c2ccc(N)cc2)n2c1ccc1c(Cl)cccc12`, for which the results for the concentration giving a half-maximal response (EC50) in the test with SNU-398 [1], in the test on T47D [4] and in the test on HCT-116 [5] were 1400 nM, 150 nM and 3800 nM, respectively.

In the case of `Cc1cc2ccccc2n2c(C(=O)c3ccccc3)cc(C#N)c12`, the EC50 in the test with SNU-398 [1] was > 10000 nM; with T47D [4], 5800 nM; in the test with HCT-116 [5], > 10000 nM.

The record behind these values is ChEMBL document CHEMBL1136982, “Discovery of 1-benzoyl-3-cyanopyrrolo[1,2-a]quinolines as a new series of apoptosis inducers using a cell- and caspase-based high-throughput screening assay. 2: Structure-activity relationships of the 4-, 5-, 6-, 7- and 8-positions” (Bioorg Med Chem Lett, 2009).
